Tested on: mice
Assay: Screening drugs with macrophage/monocyte depletion capability for enhanced mRNA delivery (Fluc expression, MC3-LNP)
Format: in vivo
Settings: Fluc mRNA 0.2 mg/kg
Method: FIGS. 6A-6B. Luciferase expression of pretreated mice injected with MC3-LNP loaded with Fluc mRNA (0.2 mg/kg).
In this example, various small molecules or monoclonal antibodies with reported macrophage depletion capabilities were screened to evaluate the effectiveness to enhance mRNA delivery. Drugs used in this study include clodronate liposome (Lipo-Clodronate), anti-CD115, anti-CCR2, anti-Ly6C, anti-Gr-1 and zoledronate (10 μg, 50 μg and 100 μg).
FIG. 5 lists treatment methods studied in this example. […] In a different experiment, zoledronate was encapsulated in liposomes (formulated with DSPC and cholesterol) and delivered to the mouse at different dosage.

SMILES: O=P(O)(O)C(O)(Cn1ccnc1)P(=O)(O)O [zoledronate]
- mRNA delivery / Fluc expression of MC3-LNP in pretreated mice (10 μg of zoledronate): enhanced the mRNA delivery
- Fluc expression of MC3-LNP in pretreated mice (high dose of zoledronate): decreased the Fluc expression

Reference: patent US20250064741A1, “METHODS FOR ENHANCED NUCLEIC ACID DELIVERY” (CORNELL UNIVERSITY, priority 2021, published 2025)
